Tested on: snoring
Experiment: Activity of the shogaol on snoring in a panel of men and women
Format: in vivo
Settings: daily doses corresponding to 20 mg of shogaol
Procedure: Daily doses corresponding to 20 mg of shogaol taken in the form of an extract according to example 1 or 2 or of pure shogaol according to example 3 were administered to a panel of men and women. The effects manifest themselves after 48 hours of treatment and persist for 48 hours after stopping the latter. […] Without being bound by theory, it appears that the effect of this molecule and of other vanilloids should be linked to their involvement in emission by certain nociceptive neurons of a neurotransmitter, substance P.

shogaol
persistence of the effects after stopping treatment: 48 h | time of treatment after which the effects manifest themselves: 48 h | effect on snoring in the user (taken as extract according to example 1 or 2 or pure shogaol according to example 3): considerably reduces snoring
